system: not listed separately; assay: Metabolic stability in human plasma assessed as parent compound remaining at 50 uM incubated for 60 mins; settings: not given

Row | SMILES | remaining at 1 h, 50 µM
1 | CCCCC/C=C\C/C=C\C/C=C\C/C=C\CCCC(=O)OCC(=O)NCCO | > 99%
2 | CCCCCCCCCCCC(=O)OCC(=O)NC1CC1 | 80%
3 | CC(C)=CCC/C(C)=C/C(=O)OCC(=O)NCCO | 89%
4 | CCCCCCCC(=O)OCC(=O)NCCc1cc(O)c(O)cc1I | 13%

system: not listed separately; assay: Metabolic stability in human skin S9 fraction assessed as parent compound remaining at 5 uM incubated for 60 mins; settings: not given

Row | SMILES | remaining at 1 h, 5 µM
5 | CCCCC/C=C\C/C=C\C/C=C\C/C=C\CCCC(=O)OCC(=O)NCCO | 76%
6 | CCCCCCCCCCCC(=O)OCC(=O)NC1CC1 | 69%
7 | CC(C)=CCC/C(C)=C/C(=O)OCC(=O)NCCO | 96%
8 | CCCCCCCC(=O)OCC(=O)NCCc1cc(O)c(O)cc1I | 27%

target: Cannabinoid receptor 1 (Homo sapiens, UniProt P21554); assay: Agonist activity at recombinant human CB1 receptor expressed in HEK293-CNG cells assessed as reduction in forskolin-induced cAMP accumulation incubated for 60 mins by fluorescence based analysis; type: functional, cell-based; settings: not given
Sequence (P21554 whole entry): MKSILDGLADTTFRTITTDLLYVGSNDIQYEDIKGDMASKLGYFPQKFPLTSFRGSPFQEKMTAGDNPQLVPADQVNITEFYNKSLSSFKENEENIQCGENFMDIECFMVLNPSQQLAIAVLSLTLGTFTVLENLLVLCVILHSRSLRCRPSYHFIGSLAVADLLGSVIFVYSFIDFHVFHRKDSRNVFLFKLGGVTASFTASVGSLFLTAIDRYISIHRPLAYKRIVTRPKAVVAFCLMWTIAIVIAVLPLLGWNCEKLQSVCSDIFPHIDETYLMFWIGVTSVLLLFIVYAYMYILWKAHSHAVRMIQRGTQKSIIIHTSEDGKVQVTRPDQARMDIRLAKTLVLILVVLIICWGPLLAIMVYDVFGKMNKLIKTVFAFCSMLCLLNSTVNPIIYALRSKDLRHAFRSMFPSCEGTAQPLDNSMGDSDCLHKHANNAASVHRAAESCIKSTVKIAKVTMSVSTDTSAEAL

Row | SMILES | EC50
9 | O=C(CO)NCCO | > 100 µM
10 | CCCCCCCC/C=C\CCCCCCCC(=O)OCC(=O)NC1CC1 | 27.9 µM
11 | O=C(CO)NCCc1cc(O)c(O)cc1I | > 100 µM
12 | C=CCNC(=O)CO | > 100 µM
13 | CCCCC/C=C\C/C=C\C/C=C\C/C=C\CCCC(=O)OCC(=O)NCCO | 30.6 µM
14 | CC(C)=CCC/C(C)=C/C(=O)OCC(=O)NCCc1cc(O)c(O)cc1I | 41.4 µM
15 | CCCCCCCC(=O)OCC(=O)NCCc1ccc(O)c(O)c1 | 13.9 µM
16 | CC(C)=CCC/C(C)=C/C(=O)OCC(=O)NCCc1ccc(O)c(O)c1 | 118 µM
17 | O=C(CO)NCCc1ccc(O)c(O)c1 | > 100 µM
18 | CCCCC/C=C\C/C=C\C/C=C\C/C=C\CCCC(=O)OCC(=O)NC1CC1 | 13.8 µM
19 | CC(C)=CCC/C(C)=C/CC/C(C)=C/CC/C=C(\C)CC/C=C(\C)CCC(=O)OCC(=O)NC1CC1 | 196 µM
20 | O=C(CO)NC1CC1 | > 100 µM
21 | C=CCNC(=O)COC(=O)CCC/C=C\C/C=C\C/C=C\C/C=C\CCCCC | 16.6 µM

target: T1, Transient receptor potential cation channel subfamily V member 1 (Homo sapiens, UniProt Q8NER1); settings: not given
T1 sequence (Q8NER1 whole entry): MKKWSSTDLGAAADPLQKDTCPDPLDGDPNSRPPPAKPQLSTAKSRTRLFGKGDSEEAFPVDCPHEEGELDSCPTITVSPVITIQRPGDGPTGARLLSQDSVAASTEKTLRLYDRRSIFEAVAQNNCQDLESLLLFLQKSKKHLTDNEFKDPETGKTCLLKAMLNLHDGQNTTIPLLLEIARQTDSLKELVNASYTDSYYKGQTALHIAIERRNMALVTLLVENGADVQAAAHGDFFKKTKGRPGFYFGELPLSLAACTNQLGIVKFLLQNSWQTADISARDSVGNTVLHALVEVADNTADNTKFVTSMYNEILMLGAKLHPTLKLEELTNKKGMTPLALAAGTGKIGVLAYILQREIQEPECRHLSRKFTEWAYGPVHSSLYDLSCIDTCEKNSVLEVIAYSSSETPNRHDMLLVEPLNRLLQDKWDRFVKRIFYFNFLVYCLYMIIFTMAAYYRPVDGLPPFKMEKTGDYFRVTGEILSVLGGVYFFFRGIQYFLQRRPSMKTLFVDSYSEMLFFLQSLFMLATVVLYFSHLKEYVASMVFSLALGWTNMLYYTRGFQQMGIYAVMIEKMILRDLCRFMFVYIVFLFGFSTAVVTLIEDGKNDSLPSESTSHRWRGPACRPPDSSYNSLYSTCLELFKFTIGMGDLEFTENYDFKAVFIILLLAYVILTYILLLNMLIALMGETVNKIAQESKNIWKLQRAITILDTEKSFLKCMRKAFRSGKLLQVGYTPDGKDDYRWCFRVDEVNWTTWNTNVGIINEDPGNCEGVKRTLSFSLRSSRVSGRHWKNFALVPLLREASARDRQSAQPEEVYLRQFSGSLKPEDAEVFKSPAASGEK

Row | SMILES | IC50
22 | CCCCCC[C@H](C/C=C\CCCCCCCC(=O)OCC(=O)NCCc1cc(O)c(O)cc1I)OC(=O)Cc1ccccc1 | > 100 µM
23 | O=C(CO)NCCc1cc(O)c(O)cc1I | > 100 µM
24 | CCCCCCCC(=O)OCC(=O)NCCc1cc(O)c(O)cc1I | 54.2 µM
25 | CCCCCCCCCCCC(=O)OCC(=O)NCCc1cc(O)c(O)cc1I | 64.9 µM

target: T1, Transient receptor potential cation channel subfamily V member 1; assay: Agonist activity at recombinant human TRPV1 transfected in HEK293 cells assessed as increase in intracellular Ca2+ influx by Fluo-4 NW Ca2+ dye based microfluorometric calcium flux assay; settings: not given

Row | SMILES | EC50
26 | O=C(CO)NCCO | > 100 µM
27 | C=CCNC(=O)COC(=O)CCCCCCCCCCC | 11.4 µM
28 | C=CCNC(=O)COC(=O)CCCCCCC/C=C\C[C@@H](CCCCCC)OC(=O)Cc1ccccc1 | 15.2 µM
29 | CCCCCCCC/C=C\CCCCCCCC(=O)OCC(=O)NC1CC1 | 0.7 µM
30 | C=CCNC(=O)CO | > 100 µM
31 | CCCCC/C=C\C/C=C\C/C=C\C/C=C\CCCC(=O)OCC(=O)NCCO | 2.1 µM
32 | CC(C)=CCC/C(C)=C/C(=O)OCC(=O)NC1CC1 | 33.1 µM
33 | CCCCCC[C@H](C/C=C\CCCCCCCC(=O)OCC(=O)NC1CC1)OC(=O)Cc1ccccc1 | 2.6 µM
34 | CCCCCCCCCCCC(=O)OCC(=O)NC1CC1 | 1.7 µM
35 | CC(C)=CCC/C(C)=C/C(=O)OCC(=O)NCCO | 26.8 µM
36 | C=CCNC(=O)COC(=O)CC/C(C)=C/CC/C(C)=C/CC/C=C(\C)CC/C=C(\C)CCC=C(C)C | 36.4 µM
37 | CCCCCCCC(=O)OCC(=O)NCCc1ccc(O)c(O)c1 | 10.6 µM
38 | CCCCCC[C@H](C/C=C\CCCCCCCC(=O)OCC(=O)NCCO)OC(=O)Cc1ccccc1 | 3.7 µM
39 | C=CCNC(=O)COC(=O)CCCCCCC/C=C\CCCCCCCC | 4.7 µM
40 | CCCCC/C=C\C/C=C\C/C=C\C/C=C\CCCC(=O)OCC(=O)NCCc1ccc(O)c(O)c1 | 1 µM
41 | CC(C)=CCC/C(C)=C/CC/C(C)=C/CC/C=C(\C)CC/C=C(\C)CCC(=O)OCC(=O)NC1CC1 | 13.4 µM
42 | O=C(CO)NC1CC1 | > 100 µM
43 | C=CCNC(=O)COC(=O)CCC/C=C\C/C=C\C/C=C\C/C=C\CCCCC | 21.8 µM
44 | CCCCCC[C@H](C/C=C\CCCCCCCC(=O)OCC(=O)NCCc1ccc(O)c(O)c1)OC(=O)Cc1ccccc1 | 3.1 µM
45 | C=CCNC(=O)COC(=O)CCCCCCC | 23.3 µM

system: not listed separately; assay: Metabolic stability in human Keratinocytes assessed as parent compound remaining at 5 uM incubated for 120 mins; settings: not given

Row | SMILES | remaining at 2 h, 5 µM
46 | CCCCC/C=C\C/C=C\C/C=C\C/C=C\CCCC(=O)OCC(=O)NCCO | 97%
47 | CCCCCCCCCCCC(=O)OCC(=O)NC1CC1 | 99%
48 | CC(C)=CCC/C(C)=C/C(=O)OCC(=O)NCCO | 96%
49 | CCCCCCCC(=O)OCC(=O)NCCc1cc(O)c(O)cc1I | 85%

system: not listed separately; assay: Metabolic stability in human liver S9 fraction assessed as parent compound remaining at 5 uM incubated for 60 mins; settings: not given

Row | SMILES | remaining at 1 h, 5 µM
50 | CCCCC/C=C\C/C=C\C/C=C\C/C=C\CCCC(=O)OCC(=O)NCCO | 24%
51 | CCCCCCCCCCCC(=O)OCC(=O)NC1CC1 | 1%
52 | CC(C)=CCC/C(C)=C/C(=O)OCC(=O)NCCO | 89%
53 | CCCCCCCC(=O)OCC(=O)NCCc1cc(O)c(O)cc1I | 1%

system: not listed separately; assay: Metabolic stability in human HaCaT cells assessed as parent compound remaining at 5 uM incubated for 120 mins; settings: not given

Row | SMILES | remaining at 2 h, 5 µM
54 | CCCCC/C=C\C/C=C\C/C=C\C/C=C\CCCC(=O)OCC(=O)NCCO | > 99%
55 | CCCCCCCCCCCC(=O)OCC(=O)NC1CC1 | 94%
56 | CC(C)=CCC/C(C)=C/C(=O)OCC(=O)NCCO | 98%
57 | CCCCCCCC(=O)OCC(=O)NCCc1cc(O)c(O)cc1I | 73%

target: T2, Cannabinoid receptor 2 (Homo sapiens, UniProt P34972); assay: Agonist activity at recombinant human CB2 receptor expressed in HEK293-CNG cells assessed as reduction in forskolin-induced cAMP accumulation incubated for 60 mins by fluorescence based analysis; type: functional, cell-based; settings: not given
T2 sequence (P34972 whole entry): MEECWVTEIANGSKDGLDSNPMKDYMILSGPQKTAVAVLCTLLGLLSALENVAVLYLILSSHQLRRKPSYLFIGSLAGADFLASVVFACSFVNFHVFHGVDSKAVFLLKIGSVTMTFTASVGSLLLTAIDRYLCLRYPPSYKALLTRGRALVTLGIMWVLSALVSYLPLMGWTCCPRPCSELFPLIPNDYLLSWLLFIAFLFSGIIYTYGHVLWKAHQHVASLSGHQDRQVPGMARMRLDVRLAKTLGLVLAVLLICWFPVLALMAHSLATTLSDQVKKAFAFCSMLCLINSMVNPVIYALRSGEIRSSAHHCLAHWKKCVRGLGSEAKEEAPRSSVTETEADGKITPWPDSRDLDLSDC

Row | SMILES | EC50
58 | O=C(CO)NCCO | > 100 µM
59 | O=C(CO)NCCc1cc(O)c(O)cc1I | > 100 µM
60 | C=CCNC(=O)CO | > 100 µM
61 | CCCCCCCCCCCC(=O)OCC(=O)NC1CC1 | 87.6 µM
62 | CC(C)=CCC/C(C)=C/C(=O)OCC(=O)NCCO | 37.8 µM
63 | CC(C)=CCC/C(C)=C/C(=O)OCC(=O)NCCc1cc(O)c(O)cc1I | 36.8 µM
64 | CCCCCCCC(=O)OCC(=O)NCCc1cc(O)c(O)cc1I | > 100 µM
65 | CC(C)=CCC/C(C)=C/C(=O)OCC(=O)NCCc1ccc(O)c(O)c1 | 89.9 µM
66 | O=C(CO)NCCc1ccc(O)c(O)c1 | > 100 µM
67 | O=C(CO)NC1CC1 | > 100 µM
68 | C=CCNC(=O)COC(=O)CCC/C=C\C/C=C\C/C=C\C/C=C\CCCCC | 62 µM

system: not listed separately; assay: Metabolic stability in human Fibroblast assessed as parent compound remaining at 5 uM incubated for 120 mins; settings: fibroblasts

Row | SMILES | remaining at 2 h, 5 µM
69 | CCCCC/C=C\C/C=C\C/C=C\C/C=C\CCCC(=O)OCC(=O)NCCO | 73%
70 | CCCCCCCCCCCC(=O)OCC(=O)NC1CC1 | 62%
71 | CC(C)=CCC/C(C)=C/C(=O)OCC(=O)NCCO | 93%
72 | CCCCCCCC(=O)OCC(=O)NCCc1cc(O)c(O)cc1I | 69%

target: T1, Transient receptor potential cation channel subfamily V member 1; assay: Agonist activity at human TRPV1 expressed in HEK293 cells assessed as induction of current by patch clamp assay; settings: not given

Row | SMILES | EC50
73 | CC(C)=CCC/C(C)=C/C(=O)OCC(=O)NCCO | 47.5 µM

target: T2, Cannabinoid receptor 2; assay: Antagonist activity at recombinant human CB2 receptor expressed in HEK293-CNG cells assessed as cAMP accumulation incubated for 60 mins in presence of forskolin by fluorescence based analysis; type: functional, cell-based; settings: not given

Row | SMILES | IC50
74 | COc1ccc(C(=O)c2c(C)n(CCN3CCOCC3)c3cc(I)ccc23)cc1 | 0.03 µM

From ChEMBL document CHEMBL6071163, “The multicomponent Passerini reaction as a means of accessing diversity in structure, activity and properties: Soft and hard vanilloid/cannabinoid modulators” (Eur J Med Chem, 2024)
